Active and inactive are the calls of the source. The rule behind the calls is not given here.

Assay [1] is described as follows: Inhibition of farnesyl transferase. Also on record: species or system Homo sapiens.
Assay [2] is described as follows: Antiproliferative effect on human aortic smooth muscle cells. The assay is classed as functional.
The species entered for assay [3] is Homo sapiens. Description: Effect on FTase mediated Ras farnesylation in human aortic smooth muscle cells at 250 uM after 72 hrs by Western blot analysis.
The species entered for assay [4] is Homo sapiens. Description: Effect on FTase mediated Ras farnesylation in human aortic smooth muscle cells at 2 uM after 72 hrs by Western blot analysis. For orientation: A western blot detects proteins with antibodies after separation by electrophoresis.

One may read the IC50 as the concentration that inhibits the measured activity by half. Read a low IC50 as higher potency. `COc1ccccc1-c1c(CN[C@H](CCSC)C(=O)O)cccc1NC(=O)C[C@H]1COc2ncccc2O1` (mixture of isomers): the IC50 in assay [1] turned out to be 843 µM.
Turning to `COc1ccccc1-c1c(CN[C@@H](CCSC)C(=O)O)cccc1NC(=O)C[C@@H]1COc2ncccc2O1` (mixture of isomers), the IC50 in assay [1] worked out at 151 µM.
Regarding `CSCC[C@H](NC(=O)c1ccc(OC[C@@H]2COc3ncccc3O2)cc1-c1ccccc1C)C(=O)O`, the IC50 is 0.045 µM in assay [1] and 58.8 µM in assay [2]. Also, the outcome in the assay filed under Homo sapiens [3] was Active.
For the molecule `COc1ccccc1-c1c(CN[C@H](CCSC)C(=O)O)cccc1NC(=O)C[C@@H]1COc2ncccc2O1`, in assay [1], the IC50 was more than 1000 µM.
The molecule `COc1ccccc1-c1cc(OC[C@@H]2COc3ncccc3O2)ccc1C(=O)N[C@H](CCSC)C(=O)O` came in with an IC50 in assay [1] of 0.112 µM.
Turning to `CSCC[C@@H](NC(=O)c1ccc(OC[C@@H]2COc3ncccc3O2)cc1-c1ccccc1C)C(=O)O`, the IC50 in assay [1] was 0.053 µM; in assay [2], 16.8 µM. In addition, the outcome in the assay filed under Homo sapiens [3] was Active.
On to `CCC(C)(C)C(=O)O[C@H]1C[C@@H](C)C=C2C=C[C@H](C)[C@H](CC[C@@H]3C[C@@H](O)CC(=O)O3)[C@H]21`, for which the result in the assay listed under Homo sapiens [4] was Active.
Take `COc1ccccc1-c1cc(OC[C@H]2COc3ncccc3O2)ccc1C(=O)N[C@H](CCSC)C(=O)O`: the IC50 in assay [1] is more than 1000 µM.
The same measure, in the same setting: the figure for `CSCC[C@H](NCc1cccc(NC(=O)C[C@H]2COc3ncccc3O2)c1-c1ccccc1C)C(=O)O` is 12 µM; for `COc1ccccc1-c1c(CN[C@@H](CCSC)C(=O)O)cccc1NC(=O)C[C@H]1COc2ncccc2O1` it is 302 µM; for `CSCC[C@@H](NCc1cccc(NC(=O)C[C@H]2COc3ncccc3O2)c1-c1ccccc1C)C(=O)O` (mixture of isomers) it is more than 1000 µM.
`COc1ccccc1-c1cc(OC[C@@H]2COc3ncccc3O2)ccc1C(=O)N[C@@H](CCSC)C(=O)O` (mixture of isomers) returned an IC50 in assay [1] of 0.055 µM.
Regarding `CSCC[C@@H](NC(=O)c1ccc(OC[C@H]2COc3ncccc3O2)cc1-c1ccccc1C)C(=O)O`, the figures for the IC50 in assay [1] and in assay [2] were 0.075 µM and 238 µM, respectively.
For the molecule `COc1ccccc1-c1cc(OC[C@H]2COc3ncccc3O2)ccc1C(=O)N[C@@H](CCSC)C(=O)O`, the IC50 in assay [1] amounted to 0.053 µM.
In turn, `CSCC[C@@H](NCc1cccc(NC(=O)C[C@@H]2COc3ncccc3O2)c1-c1ccccc1C)C(=O)O` registered an IC50 in assay [1] of more than 1000 µM.
Take `CSCC[C@H](NC(=O)c1ccc(OC[C@H]2COc3ncccc3O2)cc1-c1ccccc1C)C(=O)O`: the IC50 in assay [1] was 0.05 µM; in assay [2], 158 µM.
`CSCC[C@H](NCc1cccc(NC(=O)C[C@@H]2COc3ncccc3O2)c1-c1ccccc1C)C(=O)O` (mixture of isomers): inhibition in assay [1] was half-maximal at 16 µM (IC50).

For the origin of these results see ChEMBL document CHEMBL1140522, “Peptidomimetic inhibitors of farnesyltransferase with high in vitro activity and significant cellular potency” (Bioorg Med Chem Lett, 2007).
